# Measured values published in patent US20100168197A1, “MUSCARINIC RECEPTOR ANTAGONISTS” (priority 2007, published 2010).
# Tested on: Guinea Pig trachea
# Assay: In-vitro functional assay, carbachol-contracted isolated trachea
# Conditions: Cavia porcellus; isolated tissue, 1 μM carbachol contraction; range stated for the group of tested compounds
# Description: The contractile results are expressed as % of control E max. ED50 values are calculated by fitting a non-linear regression curve (Graph Pad Prism). pKb values are calculated by the formula pKb=−log [(molar concentration of antagonist/(dose ratio−1))]
# where, dose ratio=ED50 in the presence of antagonist/ED50 in the absence of antagonist.
# The Guinea Pig (400-600 gm) was procured and trachea was removed under anesthesia (sodium pentobarbital, 300 mg/kg i.p) and was immediately kept it in ice-cold Krebs Henseleit buffer. Indomethacin (10 μM) was present throughout the KH buffer to prevent the formation of bronchoactive prostanoids.
# The tissue of adherent fascia was cleaned and was cut into strips of equal size (with approximately 4-5 tracheal rings in each strip). The epithelium was removed by careful rubbing, minimizing damage to the smooth muscle. […] Opposite ends of the cut rings were tied with the help of a thread. The tissue was mounted in isolated tissue baths containing 10 ml Krebs Henseleit buffer maintained at 37° C. and bubbled with carbogen, at a basal tension of 1 gm. The buffer was changed 4-5 times for about an hour. The tissue was equilibrated for 1 hour for stabilization. After 1 hour, the tissue was challenged with 1 μM carbachol. This was repeated after every 2-3 washes till two similar consecutive responses were obtained. At the end of stabilization, the tissue was washed for 30 minutes followed by incubation with suboptimal dose of MRA/Vehicle for 20 minutes prior to contraction of the tissues with 1 μM carbachol. The contractile response of tissues was recorded either on Powerlab data acquisition system or on Grass polygraph (Model 7). The relaxation was expressed as percentage of maximum carbachol response. The data was expressed as mean±s.e. mean for n observations. The EC50 was calculated as the concentration producing 50% of the maximum relaxation to 1 μM carbachol. The percent relaxation was compared between the treated and control tissues using non-parametric unpaired t-test. A p value of <0.05 was considered to be statistically significant.
smiles,measurement,value
"Cc1n(CCCOC(=O)[C@](O)(c2ccccc2)[C@@H]2CCCC(F)(F)C2)cc[n+]1C [Compound No. 5, 1-[3-({(2R)-2-[(1R)-3,3-Difluorocyclohexyl]-2-hydroxy-2-phenylacetyl}oxy)propyl]-2,3-dimethyl-1H-imidazol-3-ium iodide]",Kb,0.1 to 3.16 nM
"Cc1n(CCCOC(=O)C(O)(c2ccccc2)C2CCCCCC2)cc[n+]1C (centres unmarked) [Compound No. 6, 1-(3-{[Cycloheptyl(hydroxy)phenylacetyl]oxy}propyl)-2,3-dimethyl-1H-imidazol-3-ium iodide]",Kb,0.1 to 3.16 nM
"Cc1n(CCCOC(=O)[C@](O)(c2ccccc2)[C@@H]2CCCC(F)(F)C2)cc[n+]1Cc1ccc(Br)cc1 [Compound No. 9, 3-(4-Bromobenzyl)-1-[3-({(2R)-2-[(1R)-3,3-difluorocyclohexyl]-2-hydroxy-2-phenylacetyl}oxy)propyl]-2-methyl-1H-imidazol-3-ium bromide]",Kb,0.1 to 3.16 nM
"Cc1n(CCCOC(=O)[C@](O)(c2ccccc2)[C@@H]2CCC(F)(F)C2)cc[n+]1Cc1ccc(F)cc1 [Compound No. 13, 1-[3-({(2R)-2-[(1R)-3,3-Difluorocyclopentyl]-2-hydroxy-2-phenylacetyl}oxy)propyl]-3-(4-fluorobenzyl)-2-methyl-1H-imidazol-3-ium bromide]",Kb,0.1 to 3.16 nM
"Cc1n(CCOC(=O)[C@](O)(c2ccccc2)[C@@H]2CCC(F)(F)C2)cc[n+]1Cc1ccccc1 [Compound No. 17, 3-Benzyl-1-[2-({(2R)-2-[(1R)-3,3-difluorocyclopentyl]-2-hydroxy-2-phenylacetyl}oxy)ethyl]-2-methyl-1H-imidazol-3-ium chloride]",Kb,0.1 to 3.16 nM
"Cc1n(CCOC(=O)[C@](O)(c2ccccc2)[C@@H]2CCC(F)(F)C2)cc[n+]1C [Compound No. 19, 1-[2-({(2R)-2-[(1R)-3,3-Difluorocyclopentyl]-2-hydroxy-2-phenylacetyl}oxy)ethyl]-2,3-dimethyl-1H-imidazol-3-ium bromide]",Kb,0.1 to 3.16 nM
"CC[n+]1ccn(CCCOC(=O)[C@](O)(c2ccccc2)[C@@H]2CCC(F)(F)C2)c1C [Compound No. 21, 1-[3-({(2R)-2-[(1R)-3,3-Difluorocyclopentyl]-2-hydroxy-2-phenylacetyl}oxy)propyl]-3-ethyl-2-methyl-1H-imidazol-3-ium iodide]",Kb,0.1 to 3.16 nM
"Cc1n(CCCOC(=O)[C@](O)(c2ccccc2)[C@@H]2CCC(F)(F)C2)cc[n+]1CC1CC1 [Compound No. 22, 3-(Cyclopropylmethyl)-1-[3-({(2R)-2-[(1R)-3,3-difluorocyclopentyl]-2-hydroxy-2-phenylacetyl}oxy)propyl]-2-methyl-1H-imidazol-3-ium bromide]",Kb,0.1 to 3.16 nM
"Cc1n(CCCOC(=O)[C@](O)(c2ccccc2)[C@@H]2CCC(F)(F)C2)cc[n+]1CC1CCCCC1 [Compound No. 23, 3-(Cyclohexylmethyl)-1-[3-({(2R)-2-[(1R)-3,3-difluorocyclopentyl]-2-hydroxy-2-phenylacetyl}oxy)propyl]-2-methyl-1H-imidazol-3-ium bromide]",Kb,0.1 to 3.16 nM
"Cc1n(CCCOC(=O)[C@](O)(c2ccccc2)[C@@H]2CCC(F)(F)C2)cc[n+]1Cc1ccccc1 [Compound No. 28, 3-Benzyl-1-[3-({(2R)-2-[(1R)-3,3-difluorocyclopentyl]-2-hydroxy-2-phenylacetyl}oxy)propyl]-2-methyl-1H-imidazol-3-ium chloride]",Kb,0.1 to 3.16 nM
"Cc1n(CCCOC(=O)[C@](O)(c2ccccc2)[C@@H]2CCC(F)(F)C2)cc[n+]1CCc1ccccc1 [Compound No. 29, 1-[3-({(2R)-2-[(1R)-3,3-Difluorocyclopentyl]-2-hydroxy-2-phenylacetyl}oxy)propyl]-2-methyl-3-(2-phenylethyl)-1H-imidazol-3-ium bromide]",Kb,0.1 to 3.16 nM
"Cc1n(CCCOC(=O)[C@](O)(c2ccccc2)[C@@H]2CCC(F)(F)C2)cc[n+]1C [Compound No. 30, 1-[3-({(2R)-2-[(1R)-3,3-Difluorocyclopentyl]-2-hydroxy-2-phenylacetyl}oxy)propyl]-2,3-dimethyl-1H-imidazol-3-ium bromide]",Kb,0.1 to 3.16 nM
"Cc1n(CCCOC(=O)[C@](O)(c2ccccc2)[C@@H]2CCCC(F)(F)C2)cc[n+]1Cc1ccc(F)cc1 [Compound No. 31, 1-[3-({(2R)-2-[(1R)-3,3-Difluorocyclohexyl]-2-hydroxy-2-phenylacetyl}oxy)propyl]-3-(4-fluorobenzyl)-2-methyl-1H-imidazol-3-ium bromide]",Kb,0.1 to 3.16 nM
"Cc1n(CCCOC(=O)[C@](O)(c2ccccc2)[C@@H]2CCCC(F)(F)C2)cc[n+]1Cc1ccccc1 [Compound No. 37, 3-Benzyl-1-[3-({(2R)-2-[(1R)-3,3-difluorocyclohexyl]-2-hydroxy-2-phenylacetyl}oxy)propyl]-2-methyl-1H-imidazol-3-ium chloride]",Kb,0.1 to 3.16 nM
"CCCC[n+]1ccn(CCCOC(=O)[C@](O)(c2ccccc2)[C@@H]2CCC(F)(F)C2)c1C [Compound No. 51, 3-Butyl-1-[3-({(2R)-2-[(1R)-3,3-difluorocyclopentyl]-2-hydroxy-2-phenylacetyl}oxy)propyl]-2-methyl-1H-imidazol-3-ium bromide]",Kb,0.1 to 3.16 nM
"Cc1n(CCOC(=O)[C@](O)(c2ccccc2)[C@@H]2CCC(F)(F)C2)cc[n+]1CC1CC1 [Compound No. 85, 3-(Cyclopropylmethyl)-1-[2-({(2R)-2-[(1R)-3,3-difluorocyclopentyl]-2-hydroxy-2-phenylacetyl}oxy)ethyl]-2-methyl-1H-imidazol-3-ium bromide]",Kb,0.1 to 3.16 nM
"CCCC[n+]1ccn(CCCOC(=O)C(O)(c2cccs2)c2cccs2)c1C [Compound No. 95, 3-Butyl-1-{3-[2-hydroxy(di-2-thienyl)acetoxy]propyl}-2-methyl-1H-imidazol-3-ium bromide]",Kb,0.1 to 3.16 nM
